Laboratory results from US20100234379A1, “Dual modulation of endocannabinoid transport and fatty-acid amide hydrolase for treatment of excitotoxicity” (priority 2005, published 2010).

System: ERK and FAK (pERK2, pFAK)
Experiment: Activation of ERK and FAK (CB1 signaling) in hippocampal slice cultures, immunoblot
Format: cell-based, rat
Conditions: H 10 μM
Experimental: A: Untreated slices were used to determine basal antigen levels (lane 1), while other slices were exposed to the CB1 agonist R-methanandamide (A) in the absence (lane 2) or presence of the antagonist H (lane 3). B: Integrated optical densities for pERK2 (mean±SEM) were determined by image analysis (ANOVA: P=0.014). C: Treatment groups include control slices (lane 1) and slices treated with the FAAH inhibitor B (lane 2), the transporter inhibitor C (lane 3), the B/C combination (lane 4), or B/C with 20 μM F (lane 5). D: Image analysis data for pERK2 are shown (ANOVA: P=0.015).
Hippocampal slice cultures. Sprague-Dawley rats (Charles River Laboratories; Wilmington, Mass.) were housed following guidelines from National Institutes of Health. […] Slices were maintained in culture for a 15-20-day maturation period before experiments were initiated. Activation of extracellular signal regulated-kinase (ERK) and focal adhesion kinase (FAK). […] Other slices were treated with 100-500 nM B, 10-50 μM C, or a combination of the two in the absence or presence of either H or F (Cal-Biochem). […] Integrated optical density of the bands was determined at high resolution with BIOQUANT software (R & M Biometrics, Nashville, Tenn.). […]

| Compound | prevention of the effects of agonist treatment and of B/C potentiation on ERK/FAK activation by CB1 antagonist |
| --- | --- |
| Cc1c(C(=O)NN2CCOCC2)nn(-c2ccc(Cl)cc2Cl)c1-c1ccc(I)cc1 [H] | prevented |

Same assay, conditions: slices treated 30 min; A 10-50 μM; 100 nM B and 10 μM C applied individually; B/C combination

| Compound | activation of ERK and FAK (pERK2, pFAK over basal levels) |
| --- | --- |
| CCCCC/C=C\C/C=C\C/C=C\C/C=C\CCCC(=O)N[C@H](C)CO [A, R-methanandamide] | results in the activation of extracellular signal regulated-kinase (ERK) as well as focal adhesion kinase (FAK) |

System: not given
Experiment: not given
Conditions: not given

| Compound | melting point [°C] |
| --- | --- |
| O=C1c2ccccc2S(=O)(=O)N1CCCCOc1ccc(OCc2ccccc2)cc1 | 82 to 84 |
| O=S(=O)(F)CCCCCc1ccc(O)cc1 | 32 to 35 |
| O=C(CCCCCCOc1ccc(O)cc1)C(F)(F)F | 61 to 62 |
| O=S(=O)(F)CCCCCCCc1ccc(O)cc1 | 47 to 51 |
| O=C(NCCCc1ccccc1)Nc1ccccn1 | 127 to 128 |
| O=S(=O)(F)CCCCCCCc1ccc(OCc2ccccc2)cc1 | 35 to 38 |
| O=C(CCCCOc1ccc(O)cc1)C(F)(F)F | 63 to 64 |
| O=C(NCCCc1ccccc1)NCc1ccccn1 | 89 to 90 |
| O=C(CCCCOc1ccccc1)C(F)(F)F | 50 to 51 |
| O=C(CCCCOc1ccccc1O)C(F)(F)F | 51 to 52 |
| O=S(=O)(F)CCCCOc1ccccc1 | 74 to 76 |
| O=C(CCCCOc1ccc(OCc2ccccc2)cc1)C(F)(F)F | 95.5 to 96 |
| O=C(CCCOc1ccccc1OCc1ccccc1)C(F)(F)F | 50 to 51 |
| Cc1nnc(C(=O)CCCCCCOc2ccc(OCc3ccccc3)cc2)o1 | 118 to 120 |
| O=C1c2ccccc2S(=O)(=O)N1CCCCOc1ccccc1 | 92 to 94 |
| Oc1cccc(OCCCC(O)(O)C(F)(F)F)c1 (hydrate or solvate) | 76 to 77 |
| O=C(CCCCCOc1ccc(OCc2ccccc2)cc1)C(F)(F)F | 59 to 60 |
| Cc1nnc(C(=O)CCCCCCOc2ccccc2)o1 | 75 to 77 |
| O=C(CCCOc1ccc(OCc2ccccc2)cc1)C(F)(F)F | 59 to 61 |
| O=C(CCCCCOc1ccccc1OCc1ccccc1)C(F)(F)F | 31 to 32 |
| O=C1c2ccccc2S(=O)(=O)N1CCCCOc1ccc(O)cc1 | 107 to 109 |
| O=S(=O)(F)CCCCCc1ccc(OCc2ccccc2)cc1 | 66 to 68 |
| Cc1nnc(C(=O)CCCCCCOc2ccc(O)cc2)o1 | 134 to 135 |
| COS(=O)(=O)CCCCCCCc1ccc(OCc2ccccc2)cc1 | 57 to 59 |
| O=C(CCCCCCOc1ccc(OCc2ccccc2)cc1)C(F)(F)F | 82 to 83 |

System: AMPA-injected dorsal hippocampus of adult Sprague-Dawley rats
Experiment: not given
Format: in vivo, rat
Conditions: co-injected with 63 nmol AMPA; 4-7 days post-injection

| Compound | protection of postsynaptic GluR1 levels (reduction of GluR1 decline), average [%] |
| --- | --- |
| CCCCC/C=C\C/C=C\C/C=C\C/C=C\CCCC(=O)N[C@H](C)CO [A, R-methanandamide] | 58 |

Same assay, conditions: co-injected with 63 nmol AMPA; A 250 nmol; B 0.75 nmol and C 75 nmol

| Compound | reduction of spectrin BDPN evident 4-7 days post-insult [%] |
| --- | --- |
| CCCCC/C=C\C/C=C\C/C=C\C/C=C\CCCC(=O)N[C@H](C)CO [A, R-methanandamide] | 78 |

Same assay, conditions: co-injected with AMPA, 4-7 days

| Compound | protection of presynaptic markers (synapsin II, synaptophysin) |
| --- | --- |
| CCCCC/C=C\C/C=C\C/C=C\C/C=C\CCCC(=O)N[C@H](C)CO [A, R-methanandamide] | protected by a similar level |

System: hippocampal slice cultures
Experiment: In vitro excitotoxicity: AMPA insult in cultured hippocampal slices, immunoblot for BDPN and GluR1
Conditions: 100 μM AMPA 20 min, drug post-insult, 24 h; B/C 0.5 μM and 50 μM
Experimental: Hippocampal slice cultures were infused with an excitotoxic level of AMPA for 20 min, followed by a 10-min washout period. […] The slices were harvested 24 h post-insult in groups of 6-8 each, along with untreated sister cultures, and assessed by immunoblotting for calpain-mediated spectrin breakdown product BDPN (A, C) and the postsynaptic marker GluR1 (B, D). Representative antigen staining is shown with a protein load control (con) from the same blots. Graphs contain integrated optical densities (mean±SEM) as determined by image analysis.
Chemicals and antibodies. […] Glutamatergic ligands and antagonists were obtained from Tocris (Ellisville, Mo.). […] Hippocampal slice cultures. Sprague-Dawley rats (Charles River Laboratories; Wilmington, Mass.) were housed following guidelines from National Institutes of Health. […] Slices were maintained in culture for a 15-20-day maturation period before experiments were initiated. […] Integrated optical density of the bands was determined at high resolution with BIOQUANT software (R & M Biometrics, Nashville, Tenn.). […] At such time, slices were rapidly harvested, homogenized in lysis buffer, and analyzed by immunoblot for BDPN, GluR1, and protein load control.

| Compound | reduction of cytoskeletal damage (calpain-mediated spectrin breakdown product BDPN) [%] |
| --- | --- |
| CCCCC/C=C\C/C=C\C/C=C\C/C=C\CCCC(=O)N[C@H](C)CO [A, R-methanandamide] | 72 |
